Laboratory results as given in PMC8034185, “The rumen eukaryotome is a source of novel antimicrobial peptides with therapeutic potential” (BMC Microbiology, 2021).
Values after ≈ are worked out from the molar mass of the structure shown. Ends that are not written are not given here.

Assays:
S. aureus USA300 = experiment: microbe, parasite or virus in culture; format: cell-based, Staphylococcus aureus
Experimental: (§1) MICs against a range of clinically important Gram-positive and Gram-negative bacteria strains including methicillin-sensitive Staphylococcus aureus (MSSA) RN4220 epidemic methicillin-resistant S. aureus-15 (EMRSA-15), methicillin-resistant S. aureus USA300 (MRSA USA300), Bacillus cereus, Enterococcus faecalis JH2–2, Escherichia coli K12, Salmonella enterica serovar Typhimurium SL1344, P. aeruginosa PAO1, and hospital isolates of Acinetobacter baummannii were determined in quadruplicate by a modified microdilution broth method [64] with a final bacterial inoculum concentration of 5 × 10^5 CFU/mL utilised as the test organisms. Cation-adjusted Mueller Hinton (MH) broth was innoclated overnight with a single colony of the tested microorganisms, subsequently grown for 16–24 h with shaking at 225 rpm, and further diluted in the same broth to a final concentration of 5 × 10^5 CFU/mL. The bacterial suspension was added to sterile U-bottomed 96-well plates, and the peptides and control antibiotics to be tested were dissolved in sterile distilled water and serially diluted in the wells. The MICs were recorded as the lowest peptide concentration that inhibited growth after incubation for 18 h [65].

S. aureus ATCC 33591 = experiment: microbe, parasite or virus in culture; format: cell-based, Staphylococcus aureus
Experimental: as §1

Ent. faecalis (JH2–2) = experiment: microbe, parasite or virus in culture; format: cell-based, Enterococcus faecalis; conditions: 18 h
Experimental: as §1

EMRSA-15 cells = experiment: Time-kill assay; format: cell-based, Staphylococcus aureus; conditions: for Time dependent kill, Mean Log CFU/ml / Time dependent kill, CFU/ml / Time dependent kill, Log CFU/ml: 3x MIC (24 ug/ml); for Time dependent kill, Mean Log CFU/ml: mean of 3 independent replicates
Experimental: Time-dependent kill assays were adapted from standard procedures and were all performed as previously using exponential-phase cultures of EMRA-15 MRSA and USA300 grown in MHB (1 × 10^6 CFU/mL). […] Experiments were performed in triplicates, and CFU/mL was calculated at different time points after overnight incubation of inoculated agar plates (MHA) at 37 °C. Kill curves were plotted with CFU/mL against time (h).

S. aureus EMRSA-15 = experiment: microbe, parasite or virus in culture; format: cell-based, Staphylococcus aureus
Experimental: as §1

B. cereus = experiment: microbe, parasite or virus in culture; format: cell-based, Bacillus cereus; conditions: 18 h
Experimental: as §1

S. aureus MSSA (RN4220) = experiment: microbe, parasite or virus in culture; format: cell-based, Staphylococcus aureus; conditions: 18 h
Experimental: as §1

Sal. Tyhimurium (SL1344) = experiment: microbe, parasite or virus in culture; format: cell-based, Salmonella enterica serovar Typhimurium; conditions: modified broth microdilution, cation-adjusted Mueller Hinton broth, inoculum 5 × 10^5 CFU/mL, 18 h, quadruplicate; highest concentration tested 512 μg/mL
Experimental: as §1

A. baumannii DSMZ 30007 = experiment: microbe, parasite or virus in culture; format: cell-based, Acinetobacter baumannii; conditions: modified broth microdilution, cation-adjusted Mueller Hinton broth, inoculum 5 × 10^5 CFU/mL, 18 h, quadruplicate; highest concentration tested 512 μg/mL
Experimental: as §1

A. baumannii S27379 Sen = experiment: microbe, parasite or virus in culture; format: cell-based, Acinetobacter baumannii; conditions: sensitive hospital isolate; modified broth microdilution, cation-adjusted Mueller Hinton broth, inoculum 5 × 10^5 CFU/mL, 18 h, quadruplicate; highest concentration tested 512 μg/mL
Experimental: as §1

A. baumannii IMI/MER-R = experiment: microbe, parasite or virus in culture; format: cell-based, Acinetobacter baumannii; conditions: imipenem/meropenem resistant; modified broth microdilution, cation-adjusted Mueller Hinton broth, inoculum 5 × 10^5 CFU/mL, 18 h, quadruplicate; highest concentration tested 512 μg/mL
Experimental: as §1

P. aeruginosa H174 = experiment: microbe, parasite or virus in culture; format: cell-based, Pseudomonas aeruginosa; conditions: modified broth microdilution, cation-adjusted Mueller Hinton broth, inoculum 5 × 10^5 CFU/mL, 18 h, quadruplicate; highest concentration tested 512 μg/mL
Experimental: as §1

P. aeruginosa PAO1 = experiment: microbe, parasite or virus in culture; format: cell-based, Pseudomonas aeruginosa; conditions: modified broth microdilution, cation-adjusted Mueller Hinton broth, inoculum 5 × 10^5 CFU/mL, 18 h, quadruplicate; highest concentration tested 512 μg/mL
Experimental: as §1

[1] = tested on: A. baumannii S15785 OXA-23/0XA-50; experiment: microbe, parasite or virus in culture; format: cell-based, Acinetobacter baumannii; conditions: modified broth microdilution, cation-adjusted Mueller Hinton broth, inoculum 5 × 10^5 CFU/mL, 18 h, quadruplicate; highest concentration tested 512 μg/mL
Experimental: as §1

E. coli K12 = experiment: microbe, parasite or virus in culture; format: cell-based, Escherichia coli; conditions: modified broth microdilution, cation-adjusted Mueller Hinton broth, inoculum 5 × 10^5 CFU/mL, 18 h, quadruplicate; highest concentration tested 512 μg/mL
Experimental: as §1

[2] = modified broth microdilution, cation-adjusted Mueller Hinton broth, inoculum 5 × 10^5 CFU/mL, 18 h, quadruplicate, highest concentration tested 512 μg/mL
[3] = modified broth microdilution, cation-adjusted Mueller Hinton broth, inoculum 5 × 10^5 CFU/mL, quadruplicate, highest concentration tested 512 μg/mL

CN[C@H](CC(C)C)C(=O)N[C@H]1C(=O)N[C@@H](CC(N)=O)C(=O)N[C@H]2C(=O)N[C@H]3C(=O)N[C@H](C(=O)N[C@H](C(=O)O)c4cc(O)cc(O)c4-c4cc3ccc4O)[C@H](O)c3ccc(c(Cl)c3)Oc3cc2cc(c3O[C@@H]2O[C@H](CO)[C@@H](O)[C@H](O)[C@H]2O[C@H]2C[C@](C)(N)[C@H](O)[C@H](C)O2)Oc2ccc(cc2Cl)[C@H]1O [Vancomycin]
MIC (S. aureus USA300; Staphylococcus aureus, USA300, 18 h, read-out: Minimum Inhibitory Concentration, S. aureus USA300): 2 µg/mL (≈ 1.38 µM) | MIC (S. aureus ATCC 33591; Staphylococcus aureus, ATCC33591, 18 h, read-out: Minimum Inhibitory Concentration, S. aureus ATCC 33591): 2 µg/mL (≈ 1.38 µM) | MIC (Ent. faecalis (JH2–2); Enterococcus faecalis, read-out: Minimum Inhibitory Concentration, Ent. faecalis): 2 µg/mL (≈ 1.38 µM) | Time dependent kill, Mean Log CFU/ml (EMRSA-15 cells; 0 min): 6.839 Log CFU/ml | Time dependent kill, Mean Log CFU/ml (EMRSA-15 cells; 10 min): 6.579 Log CFU/ml | Time dependent kill, Mean Log CFU/ml (EMRSA-15 cells; 30 min): 6.503 Log CFU/ml | Time dependent kill, Mean Log CFU/ml (EMRSA-15 cells; 60 min): 6.404 Log CFU/ml | Time dependent kill, Mean Log CFU/ml (EMRSA-15 cells; 120 min): 5.884 Log CFU/ml | Time dependent kill, Mean Log CFU/ml (EMRSA-15 cells; 240 min): 5.168 Log CFU/ml | Time dependent kill, Mean Log CFU/ml (EMRSA-15 cells; 360 min): 4.661 Log CFU/ml | Time dependent kill, Mean Log CFU/ml (EMRSA-15 cells; 1440 min): 0 Log CFU/ml | Time dependent kill, CFU/ml (EMRSA-15 cells; T0 min, Exp1): 7200000 CFU/ml | Time dependent kill, CFU/ml (EMRSA-15 cells; T0 min, Exp2): 7600000 CFU/ml | Time dependent kill, CFU/ml (EMRSA-15 cells; T0 min, Exp3): 6000000 CFU/ml | Time dependent kill, Log CFU/ml (EMRSA-15 cells; T0 min, Exp3): 6.778 Log CFU/ml | Time dependent kill, CFU/ml (EMRSA-15 cells; T10 min, Exp1): 3800000 CFU/ml | Time dependent kill, Log CFU/ml (EMRSA-15 cells; T10 min, Exp1): 6.58 Log CFU/ml | Time dependent kill, CFU/ml (EMRSA-15 cells; T10 min, Exp2): 3600000 CFU/ml | Time dependent kill, Log CFU/ml (EMRSA-15 cells; T10 min, Exp2): 6.5563 Log CFU/ml | Time dependent kill, CFU/ml (EMRSA-15 cells; T10 min, Exp3): 4000000 CFU/ml | Time dependent kill, Log CFU/ml (EMRSA-15 cells; T10 min, Exp3): 6.602 Log CFU/ml | Time dependent kill, CFU/ml (EMRSA-15 cells; T30 min, Exp1): 2800000 CFU/ml | Time dependent kill, Log CFU/ml (EMRSA-15 cells; T30 min, Exp1): 6.447 Log CFU/ml | Time dependent kill, CFU/ml (EMRSA-15 cells; T30 min, Exp2): 4800000 CFU/ml | Time dependent kill, Log CFU/ml (EMRSA-15 cells; T30 min, Exp2): 6.681 Log CFU/ml | Time dependent kill, CFU/ml (EMRSA-15 cells; T30 min, Exp3): 2400000 CFU/ml | Time dependent kill, Log CFU/ml (EMRSA-15 cells; T30 min, Exp3): 6.38 Log CFU/ml | Time dependent kill, CFU/ml (EMRSA-15 cells; T60 min, Exp1): 2000000 CFU/ml | Time dependent kill, Log CFU/ml (EMRSA-15 cells; T60 min, Exp1): 6.301 Log CFU/ml | Time dependent kill, CFU/ml (EMRSA-15 cells; T60 min, Exp2): 3400000 CFU/ml | Time dependent kill, Log CFU/ml (EMRSA-15 cells; T60 min, Exp2): 6.531 Log CFU/ml | Time dependent kill, CFU/ml (EMRSA-15 cells; T60 min, Exp3): 2400000 CFU/ml | Time dependent kill, Log CFU/ml (EMRSA-15 cells; T60 min, Exp3): 6.38 Log CFU/ml | Time dependent kill, CFU/ml (EMRSA-15 cells; T120 min, Exp1): 800000 CFU/ml | Time dependent kill, Log CFU/ml (EMRSA-15 cells; T120 min, Exp1): 5.903 Log CFU/ml | Time dependent kill, CFU/ml (EMRSA-15 cells; T120 min, Exp2): 700000 CFU/ml | Time dependent kill, Log CFU/ml (EMRSA-15 cells; T120 min, Exp2): 5.8451 Log CFU/ml | Time dependent kill, CFU/ml (EMRSA-15 cells; T120 min, Exp3): 800000 CFU/ml | Time dependent kill, Log CFU/ml (EMRSA-15 cells; T120 min, Exp3): 5.903 Log CFU/ml | Time dependent kill, CFU/ml (EMRSA-15 cells; T240 min, Exp1): 80000 CFU/ml | Time dependent kill, Log CFU/ml (EMRSA-15 cells; T240 min, Exp1): 4.9031 Log CFU/ml | Time dependent kill, CFU/ml (EMRSA-15 cells; T240 min, Exp2): 100000 CFU/ml | Time dependent kill, Log CFU/ml (EMRSA-15 cells; T240 min, Exp2): 5 Log CFU/ml | Time dependent kill, CFU/ml (EMRSA-15 cells; T240 min, Exp3): 400000 CFU/ml | Time dependent kill, Log CFU/ml (EMRSA-15 cells; T240 min, Exp3): 5.602 Log CFU/ml | Time dependent kill, CFU/ml (EMRSA-15 cells; T360 min, Exp1): 60000 CFU/ml | Time dependent kill, Log CFU/ml (EMRSA-15 cells; T360 min, Exp1): 4.778 Log CFU/ml | Time dependent kill, CFU/ml (EMRSA-15 cells; T360 min, Exp2): 40000 CFU/ml | Time dependent kill, Log CFU/ml (EMRSA-15 cells; T360 min, Exp2): 4.602 Log CFU/ml | Time dependent kill, CFU/ml (EMRSA-15 cells; T360 min, Exp3): 40000 CFU/ml | Time dependent kill, Log CFU/ml (EMRSA-15 cells; T360 min, Exp3): 4.602 Log CFU/ml | Time dependent kill, CFU/ml (EMRSA-15 cells; T1440 min, Exp1): 0 CFU/ml | Time dependent kill, Log CFU/ml (EMRSA-15 cells; T1440 min, Exp1): 0 Log CFU/ml | Time dependent kill, CFU/ml (EMRSA-15 cells; T1440 min, Exp2): 0 CFU/ml | Time dependent kill, Log CFU/ml (EMRSA-15 cells; T1440 min, Exp2): 0 Log CFU/ml | Time dependent kill, CFU/ml (EMRSA-15 cells; T1440 min, Exp3): 0 CFU/ml | Time dependent kill, Log CFU/ml (EMRSA-15 cells; T1440 min, Exp3): 0 Log CFU/ml | reduction in viable cells, time-kill (EMRSA-15 cells; EMRSA-15, 3× MIC, after 6 h): ≥ 10^3 CFU/mL | MIC (S. aureus EMRSA-15; Staphylococcus aureus, EMRSA15, 18 h, read-out: Minimum Inhibitory Concentration, S. aureus EMRSA-15): 2 µg/mL (≈ 1.38 µM) | MIC (B. cereus; Bacillus cereus, read-out: Minimum Inhibitory Concentration, B. cereus): 2 µg/mL (≈ 1.38 µM) | MIC (S. aureus MSSA (RN4220); Staphylococcus aureus, MSSA, read-out: Minimum Inhibitory Concentration, S. aureus MSSA): 2 µg/mL (≈ 1.38 µM)

KGLTVKFKVKN [Lub_376]
Minimum Inhibitory Concentration, Sal. Tyhimurium (Sal. Tyhimurium (SL1344)): > 512 µg/mL | Minimum Inhibitory Concentration, S. aureus USA300 (S. aureus USA300; [2]): > 512 µg/mL | Minimum Inhibitory Concentration, S. aureus ATCC 33591 (S. aureus ATCC 33591; [2]): > 512 µg/mL | Minimum Inhibitory Concentration, Ent. faecalis (Ent. faecalis (JH2–2); [3]): > 512 µg/mL | Minimum Inhibitory Concentration, A. baumannii DSMZ 30007 (A. baumannii DSMZ 30007): > 512 µg/mL | Minimum Inhibitory Concentration, A. baumannii S27379 Sen (A. baumannii S27379 Sen): > 512 µg/mL | Minimum Inhibitory Concentration, A. baumannii IMI/MER-R (A. baumannii IMI/MER-R): > 512 µg/mL | Minimum Inhibitory Concentration, S. aureus EMRSA-15 (S. aureus EMRSA-15; [2]): > 512 µg/mL | Minimum Inhibitory Concentration, P. aeruginosa H174 (P. aeruginosa H174): > 512 µg/mL | Minimum Inhibitory Concentration, P. aeruginosa PAO1 (P. aeruginosa PAO1): > 512 µg/mL | Minimum Inhibitory Concentration, A. baumannii S15785 OXA-23/0XA-50 [1]: > 512 µg/mL | Minimum Inhibitory Concentration, B. cereus (B. cereus; [3]): > 512 µg/mL | Minimum Inhibitory Concentration, E. coli K12 (E. coli K12): > 512 µg/mL | Minimum Inhibitory Concentration, S. aureus MSSA (S. aureus MSSA (RN4220); [3]): > 512 µg/mL
